Assay results from publication PMC7937321 (Genes and Environment, 2021).

Experiments:
[1] = test system: human lymphoblastoid TK6 cells, thymidine kinase gene; test: TK gene mutation assay (TK6 assay, OECD TG490); details: for MF: graph sheet Short-S9
TK6 cells = test: Cytotoxicity in the TK6 assay (CE, RS, RSG, RTG); details: for CE3: as fraction
Description: Briefly, test substances were dissolved in an appropriate solvent (DMSO or ethanol) and then serially diluted to prepare final concentrations. […] The 4 h and 24 h treatments were conducted by shaking and static exposures, respectively. After treatment with test substances, cells were centrifuged (1000 rpm, 5 min), supernatants were removed, and cells were washed with a serum-free medium or Hank’s Balanced Salt Solution. After centrifugation (1000 rpm, 5 min) to remove the supernatant, cells (2 × 10^7 cells) were dispersed in an RPMI medium containing 10% serum, and cell concentration was measured. Treated cells were cultured at 37 °C with 5% CO2 condition and used for TK6 assays. At that time, to calculate the cloning efficiency (CE) (Eq. 1), the cells were cultured in a 96-well microplate at a concentration of about 1.6 cells/well for 2 weeks.
CE, the cell colony formation rate, was calculated using Eq. 1 according to the Poisson distribution equation. EW was the number of wells without colonies, and TW was the total number of wells. N was the average number of cells per well (N = 1.6). 1 CE=−lnEW/TW/N
Additionally, CE was adjusted by the following calculation (Eq. 2) due to cell loss when exposure caused cytotoxicity. “The number of cells at the end of the treatment” was the number of cells obtained after centrifugation at the end of the treatment in the above-described exposure treatment of the test substance. The “cell number at the start of treatment” was 2 × 10^7. 2 AdjustedCE=CE×number of cellsatendof treatment/number of cellsatthe start of treatment
CE0 seeding, in which cells were seeded immediately after treatment, and CE3 seeding, in which cells were seeded 3 days after treatment, to examine cell viability in the TK6 assay described below. The relative cell viability RS0 (%) just after the treatment with the test substance was calculated from CE0, following Eq. 3. The survival rate of the negative control group was defined as 100%. 3 RS0%=adjusted CE0 of treatment culture/adjusted CE0 of solvent control×100
The TK6 assay is conducted between 20 and 10% RS0 as a maximum dose if cytotoxicity is observed. […] When the main TK6 assay was difficult to conduct under the condition of RS0 values from 20 to 10%, the test was conducted between 20 and 10% relative total growth (RTG), described later, as a maximum dose.
Besides RS0, relative suspension growth (RSG) and RTG as other cytotoxicity indices (Eq. 4) were used. When cells were cultured for 3 days after treatment with the test substance, suspension cell growth ratio 1 (SG1) was the growth ratio from day 0 to day 1 (cell concentration on day 1/cell concentration on day 0). The suspension cell growth ratio 2 (SG2) was the growth ratio from day 1 to day 2 (cell concentration on day 2/cell concentration on day 1). The RSG value was calculated by dividing the total SG value of the untreated group for 3 days by the total SG value of the treated group for the same 3 days (Eq. 4).
On the third day of culture, CE3 plates for determining plating efficiency and mutant frequency (MF) plates for mutation detection were prepared. CE3 plates were seeded in 96-well microplates at a concentration of about 1.6 cells/well.

rodent = details: cited from earlier work
[2] = test system: L5178Y mouse lymphoma cells; details: cited from earlier work
[3] = test system: human lymphoblastoid TK6 cells, thymidine kinase gene
[4] = test system: TA1538, TA100, TA98, TA97, TA1535; details: ref [18]-[40], Table 2, cited from earlier work
[5] = TK6, short treatment -S9 mix, 250 μg/mL
[6] = TK6, short treatment -S9 mix, 500 μg/mL
[7] = TK6, short treatment -S9 mix, 1000 μg/mL
[8] = TK6, short treatment -S9 mix, 2000 μg/mL
[9] = dose 250 μg/mL, +S9 mix, short treatment
[10] = dose 250 μg/mL, -S9 mix, 24 h treatment
[11] = dose 500 μg/mL, +S9 mix, short treatment
[12] = dose 500 μg/mL, -S9 mix, 24 h treatment
[13] = dose 1000 μg/mL, +S9 mix, short treatment
[14] = dose 1000 μg/mL, -S9 mix, 24 h treatment
[15] = dose 2000 μg/mL, +S9 mix, short treatment
[16] = dose 2000 μg/mL, -S9 mix, 24 h treatment

Structure (SMILES): Cc1c(N)cccc1N [2,6-DAT]
- %SG [1, 5]: 77.8%
- Mut. freq. (×10-6) N-MF [1, 5]: 2.2 ×10-6
- Mut. freq. (×10-6) S-MF [1, 5]: 7.9 ×10-6
- Mut. freq. (×10-6) T-MF [1, 5]: 10.1 ×10-6
- %SG [1, 6]: 86.8%
- Mut. freq. (×10-6) N-MF [1, 6]: 0.9 ×10-6
- Mut. freq. (×10-6) S-MF [1, 6]: 5.8 ×10-6
- Mut. freq. (×10-6) T-MF [1, 6]: 6.7 ×10-6
- %SG [1, 7]: 83.3%
- Mut. freq. (×10-6) N-MF [1, 7]: 2.1 ×10-6
- Mut. freq. (×10-6) S-MF [1, 7]: 10.3 ×10-6
- Mut. freq. (×10-6) T-MF [1, 7]: 12.3 ×10-6
- %SG [1, 8]: 78.9%
- Mut. freq. (×10-6) N-MF [1, 8]: 1.9 ×10-6
- Mut. freq. (×10-6) S-MF [1, 8]: 7.3 ×10-6
- Mut. freq. (×10-6) T-MF [1, 8]: 9.2 ×10-6
- %SG [1, 9]: 74.2%
- Mut. freq. N-MF [1, 9]: 2.7 ×10-6
- Mut. freq. S-MF [1, 9]: 7.7 ×10-6
- Mut. freq. T-MF [1, 9]: 10.3 ×10-6
- %SG [1, 10]: 76.3%
- Mut. freq. N-MF [1, 10]: 3.4 ×10-6
- Mut. freq. S-MF [1, 10]: 10.8 ×10-6
- Mut. freq. T-MF [1, 10]: 14.2 ×10-6
- %SG [1, 11]: 83.1%
- Mut. freq. N-MF [1, 11]: 1.5 ×10-6
- Mut. freq. S-MF [1, 11]: 7.6 ×10-6
- Mut. freq. T-MF [1, 11]: 9.1 ×10-6
- %SG [1, 12]: 79.9%
- Mut. freq. N-MF [1, 12]: 3.0 ×10-6
- Mut. freq. S-MF [1, 12]: 11.9 ×10-6
- Mut. freq. T-MF [1, 12]: 14.9 ×10-6
- %SG [1, 13]: 79.2%
- Mut. freq. N-MF [1, 13]: 1.8 ×10-6
- Mut. freq. S-MF [1, 13]: 7.0 ×10-6
- Mut. freq. T-MF [1, 13]: 8.9 ×10-6
- %SG [1, 14]: 87.5%
- Mut. freq. N-MF [1, 14]: 3.4 ×10-6
- Mut. freq. S-MF [1, 14]: 24.1 ×10-6
- Mut. freq. T-MF [1, 14]: 27.5 ×10-6
- %SG [1, 15]: 80.8%
- Mut. freq. N-MF [1, 15]: 3.4 ×10-6
- Mut. freq. S-MF [1, 15]: 14.5 ×10-6
- Mut. freq. T-MF [1, 15]: 17.9 ×10-6
- %SG [1, 16]: 84.3%
- Mut. freq. N-MF [1, 16]: 3.4 ×10-6
- Mut. freq. S-MF [1, 16]: 18.1 ×10-6
- Mut. freq. T-MF [1, 16]: 21.4 ×10-6
- Adjusted CE0(%) (TK6 cells; [5]): 52.1%
- CE0 (%), cell viability on Day 0 (TK6 cells; [5]): 53.2%
- CE3 (%), cell viability on Day 3 (TK6 cells; [5]): 116.0%
- RS0 (%) (TK6 cells; [5]): 75.5%
- RSG (TK6 cells; [5]): 0.717
- CE3 (TK6 cells; [5]): 1.160
- Adjusted CE0(%) (TK6 cells; [6]): 49.9%
- CE0 (%), cell viability on Day 0 (TK6 cells; [6]): 48.8%
- CE3 (%), cell viability on Day 3 (TK6 cells; [6]): 104.6%
- RS0 (%) (TK6 cells; [6]): 72.4%
- RSG (TK6 cells; [6]): 0.788
- CE3 (TK6 cells; [6]): 1.046
- Adjusted CE0(%) (TK6 cells; [7]): 40.8%
- CE0 (%), cell viability on Day 0 (TK6 cells; [7]): 40.8%
- CE3 (%), cell viability on Day 3 (TK6 cells; [7]): 92.1%
- RS0 (%) (TK6 cells; [7]): 59.2%
- RSG (TK6 cells; [7]): 0.679
- CE3 (TK6 cells; [7]): 0.921
- Adjusted CE0(%) (TK6 cells; [8]): 26.2%
- CE0 (%), cell viability on Day 0 (TK6 cells; [8]): 28.3%
- CE3 (%), cell viability on Day 3 (TK6 cells; [8]): 112.0%
- RS0 (%) (TK6 cells; [8]): 38.0%
- RSG (TK6 cells; [8]): 0.616
- CE3 (TK6 cells; [8]): 1.120
- Adjusted CE0 (TK6 cells; [9]): 75.0%
- CE0 (cell viability on Day 0) (TK6 cells; [9]): 72.7%
- CE3 (cell viability on Day 3) (TK6 cells; [9]): 81.6%
- RS0 (TK6 cells; [9]): 80.9%
- RSG (TK6 cells; [9]): 0.721
- CE3 (TK6 cells; [9]): 0.816
- Adjusted CE0 (TK6 cells; [10]): 51.3%
- CE3 (cell viability on Day 3) (TK6 cells; [10]): 95.0%
- RS0 (TK6 cells; [10]): 57.2%
- RSG (TK6 cells; [10]): 0.982
- CE3 (TK6 cells; [10]): 0.950
- Adjusted CE0 (TK6 cells; [11]): 70.6%
- CE0 (cell viability on Day 0) (TK6 cells; [11]): 68.7%
- CE3 (cell viability on Day 3) (TK6 cells; [11]): 86.6%
- RS0 (TK6 cells; [11]): 76.2%
- RSG (TK6 cells; [11]): 0.855
- CE3 (TK6 cells; [11]): 0.866
- Adjusted CE0 (TK6 cells; [12]): 25.3%
- CE0 (cell viability on Day 0) (TK6 cells; [12]): 36.0%
- RS0 (TK6 cells; [12]): 28.1%
- RSG (TK6 cells; [12]): 0.472
- CE3 (TK6 cells; [12]): 1.160
- Adjusted CE0 (TK6 cells; [13]): 45.8%
- CE0 (cell viability on Day 0) (TK6 cells; [13]): 43.3%
- CE3 (cell viability on Day 3) (TK6 cells; [13]): 95.0%
- RS0 (TK6 cells; [13]): 49.5%
- RSG (TK6 cells; [13]): 0.544
- CE3 (TK6 cells; [13]): 0.950
- Adjusted CE0 (TK6 cells; [14]): 25.1%
- CE3 (cell viability on Day 3) (TK6 cells; [14]): 101.2%
- RS0 (TK6 cells; [14]): 28.0%
- RSG (TK6 cells; [14]): 0.453
- CE3 (TK6 cells; [14]): 1.012
- Adjusted CE0 (TK6 cells; [15]): 31.8%
- CE0 (cell viability on Day 0) (TK6 cells; [15]): 31.5%
- CE3 (cell viability on Day 3) (TK6 cells; [15]): 84.1%
- RS0 (TK6 cells; [15]): 34.3%
- RSG (TK6 cells; [15]): 0.246
- CE3 (TK6 cells; [15]): 0.841
- Adjusted CE0 (TK6 cells; [16]): 20.5%
- CE0 (cell viability on Day 0) (TK6 cells; [16]): 25.3%
- CE3 (cell viability on Day 3) (TK6 cells; [16]): 108.2%
- RS0 (TK6 cells; [16]): 22.8%
- RSG (TK6 cells; [16]): 0.237
- CE3 (TK6 cells; [16]): 1.082

Structure (SMILES): CNc1ccc(N(CCO)CCO)cc1[N+](=O)[O-] [HC blue No. 1, reference compound]
- carcinogenicity classification (rodent; ref [84]): carcinogen
- mutagenicity in MLA (+S9) ([2]; +S9, ref [68]): positive with weak response
- MLA (−S9) ([2]; substance with high purity, −S9, ref [27], [85]): negative

Structure (SMILES): IC(I)I [Iodoform]
- MF at high-dose levels [3]: dose-dependent increase in MF
- TK6 assay overall judgment [3]: negative
- TK6 assay result (mutant frequency increase, judgment) [3]: Negative
- TK mutation assay, Long term [3]: Neg
- TK mutation assay, With S9 [3]: Neg
- TK mutation assay, Without S9 [3]: Neg
- Carcinogenicity Studies (rodent; rodent, ref [20]-[41], Table 2): Neg
- MF ([1]; 6.25 μg/mL, -S9 mix): 2.7
- %SG ([1]; 6.25 μg/mL, short treatment, -S9 mix): 88.0%
- MF ([1]; 50.0 μg/mL, -S9 mix): 3.0
- %SG ([1]; 50.0 μg/mL, short treatment, -S9 mix): 48.2%
- MF ([1]; 100.0 μg/mL, -S9 mix): 4.5
- %SG ([1]; 100.0 μg/mL, short treatment, -S9 mix): 69.7%
- MF ([1]; 200.0 μg/mL, -S9 mix): 3.2
- %SG ([1]; 200.0 μg/mL, short treatment, -S9 mix): 80.4%
- %SG ([1]; 24 h treatment -S9 mix, dose 10.00 μg/mL): 71.6%
- %SG ([1]; 24 h treatment -S9 mix, dose 20.00 μg/mL): 71.8%
- %SG ([1]; 24 h treatment -S9 mix, dose 30.00 μg/mL): 87.1%
- %SG ([1]; 24 h treatment -S9 mix, dose 40.0 μg/mL): 100.0%
- %SG ([1]; 24 h treatment -S9 mix, dose 50.0 μg/mL): 100.0%
- %SG ([1]; 24 h treatment -S9 mix, dose 60.0 μg/mL): 79.6%
- %SG ([1]; 24 h treatment -S9 mix, dose 70.0 μg/mL): 85.6%
- %SG ([1]; Short treatment +S9 mix, dose 25 μg/mL): 65.1%
- %SG ([1]; Short treatment +S9 mix, dose 50 μg/mL): 57.3%
- %SG ([1]; Short treatment +S9 mix, dose 100 μg/mL): 65.1%
- %SG ([1]; Short treatment +S9 mix, dose 200 μg/mL): 61.0%
- Bacterial reverse mutation assay, With S9 ([4]; with S9): Pos
- Bacterial reverse mutation assay, Without S9 ([4]; without S9): Pos
